{"source": "patent US11844853B2", "about": "“Antiperspirant composition” (Conopco, Inc., priority 2018, dated 2023)", "experiment": "Percentage flow rate reduction (PFRR) of artificial sweat across a membrane coated with antiperspirant active", "details": "metal deposited 0.004 g/membrane; 12 micron pore size, 50 mm dia.; flow of artificial sweat under 60 cm constant water bar pressure (5.9 kPa)", "experimental": "The above solutions were deposited on a membrane as give below such that the metal deposited was 0.004 g/membrane.\nWhatman cellulose nitrate membranes (AE 100, 12 micron nominal pore size, 50 mm dia.) were coated with required volume of desired % w/v or w/w solution of ACH in water. The coated membranes were taken out and kept in air for 30 mins. Then the membranes were put into a closed chamber having 250 ml 10% (v/v) ammoniacal solution inside to generate an ammoniacal blanketing at 25-30° C. temperature, for 4 hrs to neutralize the active. Then the neutralized membranes were kept in air for 6 hrs to remove excess moisture and were used for flow rate assessment. The membranes were fitted in the Millipore filtration set up and flow rate of artificial sweat under 60 cm constant water bar pressure was measured. The selected water bar pressure corresponds to 5.9 kPa, which is reported as the average secretory pressure of the sweat glands (avg.SPSG)\nWhatman cellulose nitrate membranes (AE 100, 12 micron nominal pore size, 50 mm dia.) were coated with required volume of desired % w/v or w/w solution of zinc complex in ethanol. The coated membranes were taken out and kept in air for 15 mins. […]\nThe percentage flow rate reduction was calculated using the equation:"}
{"substance": "Aluminium chlorohydrate [Example A]", "values": [{"measurement": "Avg % PFRR N = 8", "value": 66, "unit": "%"}]}
{"substance": "Zinc lysine complex [Example C, Zinc lysine complex [Zn (lysine)2. Cl2.2H2O]]", "values": [{"measurement": "Avg % PFRR N = 8", "value": 10, "unit": "%"}]}
